Measurements taken from patent publication US10872410B2, “Methods and apparatus for assessing immune system activity and therapeutic efficacy” (Animantis, LLC, priority 2016, dated 2020).

Tested on: cell population sets
Assay: Directional displacement of cell population sets measured with the immune platform (FIG. 7)
Assay type: cell-based
Details: conditions unstimulated, LPS, TNF, effect of presence of the stimulus
Description: FIG. 7 is a graphical representation of the directional displacement of cell population sets as measured using an embodiment of the immune platform described herein. […]

Row | Substance | directional displacement of cell population sets
1 | lipopolysaccharide [LPS] | greatly affected
2 | tumor necrosis factor [TNF] | minimally affected
